Test results reported in patent publication US11337990B2, “Human milk oligosaccharides to promote growth of beneficial bacteria” (ABBOTT LABORATORIES, priority 2010, dated 2022).
Entries after “also recorded” stand apart in the source; their conditions may differ.

Legend:
[1] = tested on: bifidobacteria strains; assay: Bacterial growth assay (OD600), panel of 12 strains; format: cell-based, Bifidobacterium; conditions: 1% carbohydrate in sMRS+cysteine
Procedure: (§1) Coy Laboratory Products, Grass Lake, Mich.). Subsequently, the cultures are passed twice on a semi-synthetic MRS medium ([…] which is supplemented with 1% (w/v) filter-sterilized glucose as the sole carbohydrate source. […] For bifidobacteria strains, the same procedure is followed except all media are supplemented with 0.5 g/l L-cysteine/HCl. [table] After the 2nd pass in sMRS+glucose+cysteine, the cultures are washed once with 10 mL of sterile sMRS+cysteine (no carbohydrate), resuspended in 10 ml of sterile sMRS+cysteine (no carbohydrate) and then used as a 1% inoculum. The carbohydrates are sterilized with a 0.22 micron filter and used at a 1% final concentration. Cell growth is performed in 250 μL of sMRS+cysteine covered with 50 μL of mineral oil in a Bioscreen 100-well Honeycomb plate. […] The plate reader is operated in discontinuous mode, with absorbance readings performed in 30-minute intervals, and preceded by 30-second shaking intervals at maximum speed. Controls consist of inoculated medium lacking carbohydrate. […] All three plates include a positive control (glucose) and negative control (no carbohydrate). The OD600 data for each carbohydrate is corrected by subtracting the OD600 of the basal media (sMRS)+cysteine from the sample plate for each probiotic. Maximum OD is determined by inspection of the corrected growth data. OD is determined by subtracting the initial corrected OD (time point 0) from the maximum corrected OD. Samples are grown in biologically independent triplicates and the resulting growth kinetic data are expressed as the mean of these replicates. For the growth curve plots, OD600 vs. time is first plotted for the bacteria grown on medium lacking carbohydrate (sMRS). For all other carbohydrates, the OD600 data is corrected by subtracting the OD600 of sMRS.

[2] = tested on: B. infantis ATCC 15697; assay: Bacterial growth assay (OD600); format: cell-based, Bifidobacterium infantis; conditions: 1% carbohydrate in sMRS+cysteine
Procedure: as §1

[3] = tested on: B. infantis M-63; assay: Bacterial growth assay (OD600); format: cell-based, Bifidobacterium infantis; conditions: 1% carbohydrate in sMRS+cysteine
Procedure: as §1

[4] = tested on: infant fecal bacteria; assay: In vitro substrate fermentation model with infant feces (pH, SCFA, lactate); format: cell-based, human infant
[5] = tested on: Bifidobacterium spp.; assay: qPCR of bacterial populations in in vitro fecal fermentation; format: cell-based; conditions: overall, 0-12 h fermentation; sodium salt
[6] = tested on: HT-29 cells; assay: HT-29 cell proliferation, BrdU assay; format: cell-based, human; conditions: Example 48: LNnT or 2′FL 20, 200, 2000 mg/L; 6′SL 40, 400; 72 hours; sodium salt
Procedure: In a first experiment, HT-29 cells, which model the immature epithelial cells of the small intestine, are incubated in a humidified atmosphere of 5% carbon dioxide at 37 C in the presence of LNnT at concentrations of 0 mg/L (“0”), 100 mg/L (“100”), 200 mg/L (“200”), and 400 mg/L (“400”) for either 48 hours or 72 hours. The culture medium utilized is Dulbecco's Modified Eagle Medium (Life Technologies, Foster City Calif.) supplemented with 10% fetal calf serum and 2 mM glutamine. The control consists of a combination of 91.5 mg lactose and 62.4 mg galactosamine (“LG”) per Liter of the Dulbecco's Modified Eagle Medium set forth above. The impact of the LNnT at various levels and the control on HT-29 cell proliferation is measured using a conventional BrdU assay, which measures the number of cells that have recently synthesized DNA.
(§2) In a first experiment, HT-29 cells, which model the immature epithelial cells of the small intestine, are incubated in a humidified atmosphere of 5% carbon dioxide at 37° C. in the presence of LNnT or 2′FL at concentrations of 0 mg/L (“0”), 20 mg/L (“20”), 200 mg/L (“200”), and 2000 mg/L (“2000”) or in the presence of 6′SL at concentrations of 0 mg/mL (“0”), 40 mg/mL (“40”), 400 mg/mL (“400”), and 4000 mg/mL (“4000”) for 72 hours. The culture medium utilized is Dulbecco's Modified Eagle Medium (Life Technologies, Foster City Calif.) supplemented with 10% fetal calf serum and 2 mM glutamine. The controls (“energy”) consist of 91.5 mg lactose and 64.2 mg N-acetyllactosamine/L for LNnT; 133 mg lactose and 67 mg fucose/L for 2′FL; and 195 mg lactose and 205 mg/L sialic acid for 6′SL. The impact of the LNnT, 2′FL, and 6′SL at various levels and the controls on HT-29 cell proliferation is measured using a conventional BrdU assay, which measures the number of cells that have recently synthesized DNA. […] Additionally, the impact of LNnT, 2′FL, and 6′SL at various levels and the controls on the alkaline phosphatase activity per milligram of protein for HT-29 cells, which is an indicator of cell differentiation, is measured.

[7] = tested on: HT-29 cells; assay: Alkaline phosphatase activity per milligram of protein (cell differentiation), HT-29; format: cell-based, human; conditions: Example 48: LNnT or 2′FL 20, 200, 2000 mg/L; 6′SL 40, 400; 72 hours
Procedure: as §2

[8] = tested on: Caco-2 cells; assay: Alkaline phosphatase activity per milligram of protein (cell differentiation), Caco-2; format: cell-based, human; conditions: Example 48: LNnT or 2′FL 20, 200, 2000 mg/L; 6′SL 40, 400, 4000 mg/mL; 72 hours
Procedure: In a second experiment, Caco-2 cells, which model more mature epithelial cells of the small intestine, are incubated in a humidified atmosphere of 5% carbon dioxide at 37° C. in the presence of LNnT or 2′FL at concentrations of 0 mg/L (“0”), 20 mg/L (“20”), 200 mg/L (“200”), and 2000 mg/L (“2000”) or in the presence of 6′SL at concentrations of 0 mg/mL (“0”), 40 mg/mL (“40”), 400 mg/mL (“400”), and 4000 mg/mL (“4000”) for 72 hours. The culture medium utilized is Dulbecco's Modified Eagle Medium (Life Technologies, Foster City Calif.) supplemented with 10% fetal calf serum and 2 mM glutamine. The controls (“energy”) consist of 91.5 mg lactose and 64.2 mg N-acetyllactosamine/L for LNnT; 133 mg lactose and 67 mg fucose/L for 2′FL; and 195 mg lactose and 205 mg sialic acid/L for 6′SL. The impact of the LNnT, 2′FL, and 6′SL at various levels and the control on Caco-2 cell proliferation is measured using a conventional BrdU assay, which measures the number of cells that have recently synthesized DNA. […] Additionally, the impact of LNnT, 2′FL, and 6′SL at various levels and the controls on the alkaline phosphatase activity per milligram of protein for Caco-2 cells, which is an indication of cell differentiation, is measured.

[9] = tested on: B. breve ATCC 15700; assay: Bacterial growth assay (OD600); format: cell-based, Bifidobacterium breve; conditions: 1% carbohydrate in sMRS+cysteine
Procedure: Coy Laboratory Products, Grass Lake, Mich.). Subsequently, the cultures are passed twice on a semi-synthetic MRS medium ([…] which is supplemented with 1% (w/v) filter-sterilized glucose as the sole carbohydrate source. […] For bifidobacteria strains, the same procedure is followed except all media are supplemented with 0.5 g/l L-cysteine/HCl. […] After the 2nd pass in sMRS+glucose+cysteine, the cultures are washed once with 10 mL of sterile sMRS+cysteine (no carbohydrate), resuspended in 10 ml of sterile sMRS+cysteine (no carbohydrate) and then used as a 1% inoculum. The carbohydrates are sterilized with a 0.22 micron filter and used at a 1% final concentration. Cell growth is performed in 250 μL of sMRS+cysteine covered with 50 μL of mineral oil in a Bioscreen 100-well Honeycomb plate. […] The plate reader is operated in discontinuous mode, with absorbance readings performed in 30-minute intervals, and preceded by 30-second shaking intervals at maximum speed. Controls consist of inoculated medium lacking carbohydrate. […] Maximum OD is determined by inspection of the corrected growth data. OD is determined by subtracting the initial corrected OD (time point 0) from the maximum corrected OD. Samples are grown in biologically independent triplicates and the resulting growth kinetic data are expressed as the mean of these replicates. […]

CC(=O)N[C@H]1[C@H]([C@H](O)[C@H](O)CO)O[C@@](O[C@H]2[C@@H](O)[C@@H](CO)O[C@@H](O[C@H]3[C@H](O)[C@@H](O)C(O)O[C@@H]3CO)[C@@H]2O)(C(=O)O)C[C@@H]1O (stereo partly drawn) [3′SL, 3′-Sialyllactose]
growth / ability to ferment (OD600) [1]: only B. infantis ATCC 15697 and B. infantis M-63 are able to ferment | growth / ability to ferment (OD600) [2]: able to ferment | growth / ability to ferment (OD600) [3]: able to ferment

CC(=O)N[C@H]1C([C@H](O)[C@H](O)CO)O[C@@](OCC2O[C@@H](O[C@@H]3C(CO)OC(O)C(O)[C@H]3O)C(O)[C@@H](O)[C@H]2O)(C(=O)[O-])C[C@H]1O.[Na+] (stereo in doubt) [6′SL, α-(2-6′)-N-Acetylneuraminyl-lactose sodium salt]
fermentation rate [4]: about 1,809 μg/g of dry matter/hour | acetate production ([4]; 3 and 6 h): intermediate | acetate production, formula fed versus breast fed infants ([4]; 12 h): greater | propionate production ([4]; 12 h of fermentation): large increase | total SCFA production ([4]; 12 h of fermentation, sodium salt): greater (P<0.05); also recorded: substantial amounts of SCFA | total SCFA production ([4]; after 3 and 6 h of fermentation): lower (P<0.05) with 6′SL compared to GOS | total SCFA production, formula fed versus breast fed infants ([4]; after 6 and 12 h of fermentation): greater (P=0.01) fermentation by formula fed infants | propionate production ([4]; overall): greater (P<0.0001) propionate production than all other substrates | fermentability by infant fecal bacteria ([4]; overall, sodium salt): highly fermentable; also recorded: readily fermented | lactate accumulation ([4]; up to 12 h, sodium salt): no lactate accumulation; also recorded: little lactate had accumulated | bifidobacteria populations [5]: may also be bifidogenic; also recorded: tended to generally increase bifidobacteria levels | growth / ability to ferment (OD600) [1]: only B. infantis ATCC 15697 and B. infantis M-63 are able to ferment | growth / ability to ferment (OD600) [2]: able to ferment | growth / ability to ferment (OD600) [3]: able to ferment | HT-29 cell proliferation [6]: capable of reducing cell proliferation at higher doses; also recorded: inhibits intestinal cell proliferation in immature epithelial cells | alkaline phosphatase activity per milligram of protein (cell differentiation) [7]: no apparent effect | alkaline phosphatase activity per milligram of protein (cell differentiation) [8]: no apparent effect

C[C@H](O)[C@@H](O)[C@@H](O)[C@H](O)C=O [L-fucose, reference compound]
growth / ability to ferment (OD600) [1]: None of the bifidobacteria are able to ferment | growth / ability to ferment (OD600) [2]: not able to ferment | growth / ability to ferment (OD600) [3]: not able to ferment

CC(=O)N[C@@H]1[C@@H](O)[C@H](O)[C@@H](CO)O[C@H]1O [NAG, reference compound]
growth / ability to ferment (OD600) [1]: Only B. breve ATCC 15700 is able to ferment | growth / ability to ferment (OD600) [9]: able to ferment

O=C(CO)[C@@H](O)[C@H](O)[C@H](O)CO [fructose]
growth / ability to ferment (OD600) [1]: majority of bifidobacteria is able to ferment

OC[C@H]1O[C@@H](O[C@H]2[C@H](O)[C@@H](O)C(O)O[C@@H]2CO)[C@H](O)[C@@H](O)[C@H]1O (stereo partly drawn) [lactose]
growth / ability to ferment (OD600) [1]: the bifidobacteria, which is not able to ferment galactose, also has reduced growth on lactose
